Where “and” joins values, the source holds several entries; their conditions need not be identical. Identical values can stand only once. Inconclusive results and toxic doses are left out.
Test system: L1210 leukemia ip in BDF1 mice, survival T/C
Assay: NCI In Vivo Anticancer Drug Screen. Data for tumor model L1210 Leukemia (intraperitoneal) in B6D2F1 (BDF1) mice
Details: endpoint: mean survival time, higher = longer survival
How it was run: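 Mice bearing the transplanted tumor received compound or vehicle. Survival of the treated group was divided by that of the vehicle-treated control group to give the ratio.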

[1] = dose: 100.0 mg/kg/injection, schedule: Q01DX001 (ip), vehicle: saline
[2] = dose: 100.0 mg/kg/injection, schedule: Q01DX009 (ip), vehicle: saline
[3] = dose: 100.0 mg/kg/injection, schedule: Q04DX003 (ip), vehicle: saline
[4] = dose: 200.0 mg/kg/injection, schedule: Q01DX001 (ip), vehicle: saline
[5] = dose: 200.0 mg/kg/injection, schedule: Q01DX009 (ip), vehicle: saline
[6] = dose: 200.0 mg/kg/injection, schedule: Q04DX003 (ip), vehicle: saline
[7] = dose: 400.0 mg/kg/injection, schedule: Q01DX001 (ip), vehicle: saline
[8] = dose: 400.0 mg/kg/injection, schedule: Q01DX009 (ip), vehicle: saline
[9] = dose: 12.5 mg/kg/injection, schedule: Q04DX002 (ip), vehicle: Klucel (hydroxypropylcellulose) (HPC)
[10] = dose: 50.0 mg/kg/injection, schedule: Q04DX002 (ip), vehicle: Klucel (hydroxypropylcellulose) (HPC)
[11] = dose: 100.0 mg/kg/injection, schedule: Q01DX009 (ip), vehicle: saline with Tween-80
[12] = dose: 200.0 mg/kg/injection, schedule: Q01DX009 (ip), vehicle: saline with Tween-80
[13] = dose: 400.0 mg/kg/injection, schedule: Q01DX009 (ip), vehicle: saline with Tween-80
[14] = dose: 100.0 mg/kg/injection, schedule: Q01DX009 (ip), vehicle: Klucel (hydroxypropylcellulose) (HPC)
[15] = dose: 200.0 mg/kg/injection, schedule: Q01DX009 (ip), vehicle: Klucel (hydroxypropylcellulose) (HPC)
[16] = dose: 400.0 mg/kg/injection, schedule: Q01DX009 (ip), vehicle: Klucel (hydroxypropylcellulose) (HPC)

## Cc1nc2sc3c(c2c(=O)[nH]1)CCCC3
dose: 50.0 mg/kg/injection, schedule: Q01DX001 (ip), vehicle: saline sonified
  T/C: 122 % of control
dose: 100.0 mg/kg/injection, schedule: Q01DX001 (ip), vehicle: saline sonified
  T/C: 103 % of control
dose: 200.0 mg/kg/injection, schedule: Q01DX001 (ip), vehicle: saline sonified
  T/C: 101 % of control

## NCc1ccc([N+](=O)[O-])cc1
dose: 50.0 mg/kg/injection, schedule: Q01DX009 (ip), vehicle: saline
  T/C: 93 % of control
[1]
  T/C: 96 % of control
[2]
  T/C: 96 % of control
[3]
  T/C: 101 % of control
[4]
  T/C: 104 % of control
[5]
  T/C: 110 % of control
[6]
  T/C: 93 % of control

## C[n+]1cccc2c3ccccc3c(-c3ccccc3)cc21
dose: 0.78 mg/kg/injection, schedule: Q01DX009 (ip), vehicle: water
  T/C: 86 % of control
dose: 1.56 mg/kg/injection, schedule: Q01DX009 (ip), vehicle: water
  T/C: 102 % of control
dose: 3.12 mg/kg/injection, schedule: Q01DX009 (ip), vehicle: water
  T/C: 87 % of control
dose: 6.25 mg/kg/injection, schedule: Q01DX009 (ip), vehicle: water
  T/C: 112 % of control and 92 % of control
dose: 12.5 mg/kg/injection, schedule: Q04DX003 (ip), vehicle: water
  T/C: 104 % of control
dose: 25.0 mg/kg/injection, schedule: Q04DX003 (ip), vehicle: water
  T/C: 104 % of control

## O=S1(=O)CCC(O)C1 (stereo not drawn)
[1]
  T/C: 92 % of control
[2]
  T/C: 93 % of control
[4]
  T/C: 97 % of control
[5]
  T/C: 105 % of control
[7]
  T/C: 100 % of control
[8]
  T/C: 100 % of control

## Cn1ccnc1Oc1ccc(Cl)cc1
[9]
  T/C: 106 % of control
[10]
  T/C: 100 % of control

## COc1ccc(C=NCCN=Cc2ccc(OC)c(OC)c2)cc1OC
[1]
  T/C: 100 % of control
[11]
  T/C: 101 % of control
[3]
  T/C: 92 % of control
[4]
  T/C: 104 % of control
[12]
  T/C: 95 % of control
[6]
  T/C: 87 % of control
[7]
  T/C: 102 % of control
[13]
  T/C: 95 % of control
dose: 400.0 mg/kg/injection, schedule: Q04DX003 (ip), vehicle: saline
  T/C: 92 % of control

## CN(C(=O)COc1ccc(N2C(N)=NC(N)=NC2(C)C)cc1Cl)c1ccc(S(=O)(=O)F)cc1
dose: 100.0 mg/kg/injection, schedule: Q01DX001 (ip), vehicle: saline with Tween-80
  T/C: 112 % of control
dose: 200.0 mg/kg/injection, schedule: Q01DX001 (ip), vehicle: saline with Tween-80
  T/C: 102 % of control
dose: 400.0 mg/kg/injection, schedule: Q01DX001 (ip), vehicle: saline with Tween-80
  T/C: 105 % of control

## OCC1C(CO)C2CC1C1N=NN(c3ccccc3)C21 (stereo not drawn)
dose: 100.0 mg/kg/injection, schedule: Q04DX002 (ip), vehicle: saline with Tween-80
  T/C: 93 % of control
dose: 200.0 mg/kg/injection, schedule: Q04DX002 (ip), vehicle: saline with Tween-80
  T/C: 90 % of control
dose: 400.0 mg/kg/injection, schedule: Q04DX002 (ip), vehicle: saline with Tween-80
  T/C: 93 % of control

## O=NC1C(Cl)C2CC1C1c3ccccc3C21 (stereo not drawn)
[1]
  T/C: 95 % of control
[2]
  T/C: 89 % of control
[4]
  T/C: 104 % of control
[5]
  T/C: 93 % of control
[7]
  T/C: 93 % of control
[8]
  T/C: 89 % of control

## Cn1nc(C(N)=O)c(C#N)c1N
dose: 50.0 mg/kg/injection, schedule: Q04DX002 (ip), vehicle: saline
  T/C: 103 % of control
dose: 100.0 mg/kg/injection, schedule: Q04DX002 (ip), vehicle: saline
  T/C: 92 % of control
dose: 200.0 mg/kg/injection, schedule: Q04DX002 (ip), vehicle: saline
  T/C: 95 % of control

## O=C(O)CCN1C(=O)c2ccccc2C1=O
[11]
  T/C: 96 % of control
[12]
  T/C: 95 % of control
[13]
  T/C: 102 % of control

## CC1(C)CN(N=O)C(C)(C)CN1N=O
dose: 100.0 mg/kg/injection, schedule: Q04DX003 (ip), vehicle: acetone
  T/C: 99 % of control
dose: 200.0 mg/kg/injection, schedule: Q04DX003 (ip), vehicle: acetone
  T/C: 103 % of control
dose: 400.0 mg/kg/injection, schedule: Q04DX003 (ip), vehicle: acetone
  T/C: 96 % of control

## CC1(C(=O)c2ccccc2)OC1c1ccccc1 (stereo not drawn)
[14]
  T/C: 98 % of control
[15]
  T/C: 104 % of control
[16]
  T/C: 103 % of control

## Cc1cccc(NC(=O)COc2cc(Cl)c(Cl)cc2Cl)c1C
[14]
  T/C: 98 % of control
[15]
  T/C: 93 % of control
[16]
  T/C: 101 % of control

## [CH3][Pb]([CH3])([CH3])[O]C(=O)c1ccc([N+](=O)[O-])cc1
[9]
  T/C: 97 % of control

## CCOC(=O)/C(C#N)=C/c1ccc2n1Cc1cc(OC)c(OC)cc1N(C(C)=O)C2
dose: 25.0 mg/kg/injection, schedule: Q04DX002 (ip), vehicle: Klucel (hydroxypropylcellulose) (HPC)
  T/C: 95 % of control
[10]
  T/C: 93 % of control
dose: 100.0 mg/kg/injection, schedule: Q04DX002 (ip), vehicle: Klucel (hydroxypropylcellulose) (HPC)
  T/C: 87 % of control

## CC1CN=C(c2ccc(NC(=O)c3ccc(C(=O)Nc4ccc(C5=NCC(C)N5)cc4)cc3)cc2)N1 (stereo not drawn)
dose: 0.5 mg/kg/injection, schedule: Q01DX Z (ip), vehicle: carboxymethylcellulose (CMC)
  T/C: 100 % of control
dose: 1.0 mg/kg/injection, schedule: Q01DX Z (ip), vehicle: carboxymethylcellulose (CMC)
  T/C: 117 % of control
dose: 1.0 mg/kg/injection, schedule: Q01DX Z (ip), vehicle: saline
  T/C: 119 % of control
dose: 1.9 mg/kg/injection, schedule: Q01DX Z (ip), vehicle: carboxymethylcellulose (CMC)
  T/C: 198 % of control
dose: 2.9 mg/kg/injection, schedule: Q01DX Z (ip), vehicle: carboxymethylcellulose (CMC)
  T/C: 173 % of control and 193 % of control
dose: 3.8 mg/kg/injection, schedule: Q01DX Z (ip), vehicle: carboxymethylcellulose (CMC)
  T/C: 228 % of control
dose: 4.3 mg/kg/injection, schedule: Q01DX Z (ip), vehicle: carboxymethylcellulose (CMC)
  T/C: 157 % of control
dose: 6.5 mg/kg/injection, schedule: Q01DX Z (ip), vehicle: carboxymethylcellulose (CMC)
  T/C: 207 % of control
dose: 7.5 mg/kg/injection, schedule: Q01DX Z (ip), vehicle: carboxymethylcellulose (CMC)
  T/C: 337 % of control
dose: 9.7 mg/kg/injection, schedule: Q01DX Z (ip), vehicle: carboxymethylcellulose (CMC)
  T/C: 205 % of control
dose: 15.0 mg/kg/injection, schedule: Q01DX Z (ip), vehicle: carboxymethylcellulose (CMC)
  T/C: 243 % of control
dose: 30.0 mg/kg/injection, schedule: Q01DX Z (ip), vehicle: carboxymethylcellulose (CMC)
  T/C: 175 % of control
dose: 30.0 mg/kg/injection, schedule: Q01DX Z (oral), vehicle: carboxymethylcellulose (CMC)
  T/C: 97 % of control
dose: 32.8 mg/kg/injection, schedule: Q01DX Z (ip), vehicle: carboxymethylcellulose (CMC)
  T/C: 151 % of control
dose: 60.0 mg/kg/injection, schedule: Q01DX Z (ip), vehicle: saline
  T/C: 119 % of control
dose: 60.0 mg/kg/injection, schedule: Q01DX Z (oral), vehicle: carboxymethylcellulose (CMC)
  T/C: 94 % of control
dose: 62.5 mg/kg/injection, schedule: Q## X010 (oral), vehicle: saline
  T/C: 102 % of control
dose: 74.0 mg/kg/injection, schedule: Q01DX Z (ip), vehicle: carboxymethylcellulose (CMC)
  T/C: 114 % of control
dose: 111.0 mg/kg/injection, schedule: Q01DX Z (ip), vehicle: carboxymethylcellulose (CMC)
  T/C: 101 % of control
dose: 120.0 mg/kg/injection, schedule: Q01DX Z (ip), vehicle: saline
  T/C: 114 % of control
dose: 120.0 mg/kg/injection, schedule: Q01DX Z (oral), vehicle: carboxymethylcellulose (CMC)
  T/C: 97 % of control
dose: 125.0 mg/kg/injection, schedule: Q## X010 (oral), vehicle: saline
  T/C: 102 % of control
dose: 240.0 mg/kg/injection, schedule: Q01DX Z (oral), vehicle: carboxymethylcellulose (CMC)
  T/C: 94 % of control
dose: 250.0 mg/kg/injection, schedule: Q## X010 (oral), vehicle: saline
  T/C: 102 % of control
dose: 375.0 mg/kg/injection, schedule: Q01DX Z (ip), vehicle: carboxymethylcellulose (CMC)
  T/C: 117 % of control
dose: 500.0 mg/kg/injection, schedule: Q## X010 (oral), vehicle: saline
  T/C: 103 % of control

## Cc1ccccc1Sc1ccccc1[N+](=O)[O-]
dose: 100.0 mg/kg/injection, schedule: Q04DX003 (ip), vehicle: Klucel (hydroxypropylcellulose) (HPC)
  T/C: 95 % of control
dose: 200.0 mg/kg/injection, schedule: Q04DX003 (ip), vehicle: Klucel (hydroxypropylcellulose) (HPC)
  T/C: 106 % of control
dose: 400.0 mg/kg/injection, schedule: Q04DX003 (ip), vehicle: Klucel (hydroxypropylcellulose) (HPC)
  T/C: 103 % of control
